Measurements: US20260109731A1, “NE[…] USE THEREOF” (HUNAN MINGRUI PHARMACEUTICAL CO., LTD., priority 2023, published 2026)
Several values for one entry are separate records, joined by “and”; a condition that tells them apart may be missing. Equal values may be shown once.

Assay: In vitro phase I metabolic stability in male SD rat hepatic microsomes
Type: in vitro ADME
Conditions: for Peak area ratio (test compound/testosterone-D3 (internal standard)), mean value: mean of triplicate; for Peak area ratio (test compound/testosterone-D3 (internal standard)): single replicates -1, -2, -3
Method: Phase I metabolic stability kit (purchased from HUIZHI HEYUAN BIOTECHNOLOGY (BEIJING) CO., LTD), with the following components of the product:
Positive substrate testosterone solution (10 mM): diluted with acetonitrile to prepare a 200 μM solution for later use; stop solution & internal standard (testosterone-D3): dissolved with acetonitrile to prepare a 5 ng/mL solution for later use.
• 1) all components of the kit were thawed in an ice bath and placed on ice for later use; • 2) an incubation system (taking 200 μL system as an example) was prepared:
• 3) 160 μL of pre-incubation solution B was added into the centrifuge tube containing 40 μL of pre-incubation solution A, uniform mixing was performed by pipetting three times, and the resulting mixture was immediately placed in a water bath at 37° C. for incubation and timing was started; • 4) at predetermined incubation time points (0, 5, 10, 15, 30, 45, 60 minutes), the incubation solution was quantitatively taken out, and 200 μL of stop solution (5 ng/mL testosterone-D3 in acetonitrile, pre-chilled at 4° C.) was added to terminate the reaction (stop solution volume: incubation system volume=1:1). Experimental samples were prepared in triplicate at each time point.
To verify the validity of the experiment, a positive control group was established concurrently in the whole experiment to evaluate whether the incubation system functioned properly, with the preparation method as follows: the compound to be tested was replaced with the positive substrate testosterone (200 μM in acetonitrile) from the phase I metabolic stability kit, and the other components of the incubation system and experimental method were the same as those of the experimental group.
The ratio of the chromatographic peak area of the compound to be tested to the chromatographic peak area of the testosterone-D3 (internal standard) was used as the calculated data. By taking the peak area ratio at time zero of the test compound as 100%, the remaining percentages were calculated by comparing the peak area ratio at each time point with the peak area ratio at time zero, and the natural logarithms of the remaining percentages of the substrate at each time point are then subjected to linear regression against the incubation times to obtain the slope k. Therefore, the in vitro metabolic half-life (T1/2) and intrinsic clearance (CLint) were calculated using the following formulas: […]

C[C@]12CC[C@H]3[C@@H](CCC4=CC(=O)CC[C@@]43C)[C@@H]1CC[C@@H]2O [Positive control, testosterone]
Peak area ratio (test compound/testosterone-D3 (internal standard)), mean value (incubation time 0 min): 20.01
Peak area ratio (test compound/testosterone-D3 (internal standard)) (incubation time 0 min): 20.12 and 19.58 and 20.33
Peak area ratio (test compound/testosterone-D3 (internal standard)), mean value (incubation time 10 min): 0.06
Peak area ratio (test compound/testosterone-D3 (internal standard)) (incubation time 10 min): 0.05 and 0.08 and 0.06
